# According to publication PMC11833715, “Identification of a Cannabinoid Receptor 2 Allosteric Site Using Computational Modeling and Pharmacological Analysis” (ACS Pharmacology & Translational Science, 2025):
# Entries after “also recorded” stand apart in the source; their conditions may differ. Read-outs that look alike come from different tables or passages of the source.
# How the values were obtained:
# CB2 mutant F72A = CB2 mutant F72A (Homo sapiens, UniProt P34972, F72A); experiment: cAMP accumulation assay, CB2 mutant F72A; settings: in the presence of JWH133
# Sequence of CB2 mutant F72A (P34972 whole entry F72A): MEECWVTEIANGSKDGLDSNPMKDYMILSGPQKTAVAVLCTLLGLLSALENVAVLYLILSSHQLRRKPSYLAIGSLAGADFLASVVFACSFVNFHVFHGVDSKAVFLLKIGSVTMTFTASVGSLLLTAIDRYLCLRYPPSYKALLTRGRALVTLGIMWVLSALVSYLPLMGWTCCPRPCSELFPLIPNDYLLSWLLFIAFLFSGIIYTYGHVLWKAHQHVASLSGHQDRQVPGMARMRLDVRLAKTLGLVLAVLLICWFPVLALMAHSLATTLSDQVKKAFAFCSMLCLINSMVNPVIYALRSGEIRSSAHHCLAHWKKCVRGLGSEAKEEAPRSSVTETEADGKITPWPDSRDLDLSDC
# Description: (§2) Primers were designed for the following mutations: F72^2.42A, L125^3.44A, L126^3.45A, I129^3.48A, L133^3.52A, T153^4.45A, I156^4.48A, M157^4.49A, L160^4.52A, F197^5.46A, and L201^5.50A (Table S3). Polymerase chain reactions (PCR) using the Bio-Rad T100TM Thermal Cycler and Applied Biosystems Veriti 96 Well Thermal Cycler to introduce the desired mutations within 3× HA-CB2 (cDNA).
# (§3) HEK293 (ATCC CRL-1573) adherent cells were passaged using Dulbecco’s Modified Eagle’s Medium (DMEM)-high glucose (Sigma-Aldrich). This DMEM was supplemented with penicillin (100 U/mL), streptomycin (100 μg/mL), and heat inactivated fetal bovine serum (FBS, 10%) (PAN-Biotech). […]
# (§4) After 24 h of incubation, the transfected HEK293 cells were then subject to starvation (2 h) with serum-free DMEM (100 μL/well). […] Bioluminescence was then measured using the CLARIOstar Plus Plate Reader (BMG LabTech, Germany). Prior to injecting the treatment ligands, approximately 5–10 basal readings were performed until stabilization was reached. Bioluminescence was measured for a total of 45 cycles (1 min per cycle, 1 s integration time, without filter, a fixed gain of 3000 and autofocus).
# (§5) Data from signaling experiments were analyzed using GraphPad Prism, version 9.4.1 software (GraphPad Software, Inc.). […]
# CB2 mutant F197A = CB2 mutant F197A (Homo sapiens, UniProt P34972, F197A); experiment: cAMP accumulation assay, CB2 mutant F197A; settings: in the presence of JWH133
# Sequence of CB2 mutant F197A (P34972 whole entry F197A): as the sequence (P34972 whole entry F72A) above, with A72F, F197A counted along it
# Description: as §2, §3, §4, §5
# CB1 = tested on: CB1; set-up: method as in PMID 29990428; settings: CB1, Chinese hamster ovary cells; cited from earlier work
# CB2 mutant L133A = CB2 mutant L133A (Homo sapiens, UniProt P34972, L133A); experiment: cAMP accumulation assay, CB2 mutant L133A; settings: in the presence of JWH133
# Sequence of CB2 mutant L133A (P34972 whole entry L133A): as the sequence (P34972 whole entry F72A) above, with A72F, L133A counted along it
# Description: as §2, §3, §4, §5
# CB2 double mutants = experiment: AlphaLISA SureFire Ultra p-ERK 1/2 assay, CB2 double mutants; type: cell-based, human; settings: 1 μM JWH133 + 10 μM Ec2la
# Procedure: (§1) Culture media were removed and replaced with allosteric modulator (45 μL/well) prepared in serum-free DMEM and incubated (RT, 30 min). The cells were then stimulated with agonist (5 μL/well) prepared in serum-free DMEM and incubated (RT, 10 min). All subsequent reagents were used from the AlphaLISA SureFire Ultra p-ERK 1/2 (Thr202/Tyr204) Assay Kit (PerkinElmer). The medium was removed, freshly prepared 1× lysis buffer (50 μL/well) was added, and the plate was agitated on a plate shaker (RT, 10 min, 350 rpm). The lysates (10 μL) were transferred to a 384-well OptiPlate (PerkinElmer), and the acceptor mix (5 μL) was added to each well under subdued light. The plate was sealed, covered with foil, and incubated (RT, 1 h). Donor mix (5 μL) was added to each well under subdued light. The plate was sealed, covered with foil, and incubated in the dark (RT, 1 h). The plate was read using CLARIOstar Plus Plate Reader (BMG LabTech, Germany) using standard AlphaLISA settings with an […].
# CB2 mutant L160A = CB2 mutant L160A (Homo sapiens, UniProt P34972, L160A); experiment: cAMP accumulation assay, CB2 mutant L160A; settings: in the presence of JWH133
# Sequence of CB2 mutant L160A (P34972 whole entry L160A): as the sequence (P34972 whole entry F72A) above, with A72F, L160A counted along it
# Description: as §2, §3, §4, §5
# CB2 mutant M157A = CB2 mutant M157A (Homo sapiens, UniProt P34972, M157A); experiment: cAMP accumulation assay, CB2 mutant M157A; settings: in the presence of JWH133
# Sequence of CB2 mutant M157A (P34972 whole entry M157A): as the sequence (P34972 whole entry F72A) above, with A72F, M157A counted along it
# Description: as §2, §3, §4, §5
# CB2 single mutants = experiment: AlphaLISA SureFire Ultra p-ERK 1/2 assay, CB2 single mutants; type: cell-based, human; settings: 1 μM JWH133 + 10 μM Ec2la
# Procedure: as §1
# CB2 [1] = tested on: CB2; set-up: method as in PMID 29990428; settings: agonists CP 55,940 and 2-AG; cited from earlier work
# CB2 mutant I129A = CB2 mutant I129A (Homo sapiens, UniProt P34972, I129A); experiment: cAMP accumulation assay, CB2 mutant I129A; settings: in the presence of JWH133
# Sequence of CB2 mutant I129A (P34972 whole entry I129A): as the sequence (P34972 whole entry F72A) above, with A72F, I129A counted along it
# Description: as §2, §3, §4, §5
# CB2 mutant L125A = CB2 mutant L125A (Homo sapiens, UniProt P34972, L125A); experiment: cAMP accumulation assay, CB2 mutant L125A; settings: in the presence of JWH133
# Sequence of CB2 mutant L125A (P34972 whole entry L125A): as the sequence (P34972 whole entry F72A) above, with A72F, L125A counted along it
# Description: as §2, §3, §4, §5
# CB2 [2] = tested on: CB2; set-up: method as in PMID 29990428; settings: CB2, Chinese hamster ovary cells; cited from earlier work
# WT CB2 [3] = target: T1, WT CB2 (Homo sapiens, UniProt P34972); experiment: pGlo-Sensor-22F cAMP accumulation assay, WT CB2; type: cell-based; settings: for EC50: agonist dose-response on CB2, vehicle control (no Ec2la), read-out: pEC50/pIC50 values (converted)
# T1 construct: expressed in transfected cells; host or cells: HEK293
# T1 sequence (P34972 whole entry): as the sequence (P34972 whole entry F72A) above, with A72F counted along it
# Description: Compounds were drawn using ChemDraw.
# CB2 mutant T153A = CB2 mutant T153A (Homo sapiens, UniProt P34972, T153A); experiment: cAMP accumulation assay, CB2 mutant T153A; settings: in the presence of JWH133
# Sequence of CB2 mutant T153A (P34972 whole entry T153A): as the sequence (P34972 whole entry F72A) above, with A72F, T153A counted along it
# Description: as §2, §3, §4, §5
# WT CB2 [4] = target: T1, WT CB2; experiment: AlphaLISA SureFire Ultra p-ERK 1/2 assay, WT CB2; type: cell-based; settings: 1 μM JWH133 + 10 μM Ec2la
# Procedure: as §1
# CB2 mutant L126A = CB2 mutant L126A (Homo sapiens, UniProt P34972, L126A); experiment: cAMP accumulation assay, CB2 mutant L126A; settings: in the presence of JWH133
# Sequence of CB2 mutant L126A (P34972 whole entry L126A): as the sequence (P34972 whole entry F72A) above, with A72F, L126A counted along it
# Description: as §2, §3, §4, §5
# CB2 mutant L201A = CB2 mutant L201A (Homo sapiens, UniProt P34972, L201A); experiment: cAMP accumulation assay, CB2 mutant L201A; settings: in the presence of JWH133
# Sequence of CB2 mutant L201A (P34972 whole entry L201A): as the sequence (P34972 whole entry F72A) above, with A72F, L201A counted along it
# Description: as §2, §3, §4, §5
# CB1 receptor [5] = tested on: CB1 receptor; set-up: method as in PMID 22343625; settings: CB1, in the presence of orthosteric ligand CP 55,940; cited from earlier work
# CB1 receptor [6] = tested on: CB1 receptor; set-up: method as in PMID 22343625; settings: cited from earlier work
compound,measurement,setting,value
Cc1c(Br)cn(Cc2ccc(F)cc2)c(=O)c1NC(=O)C1CCCCCC1 [Ec2la],allosteric signal in cAMP assay,CB2 mutant F72A,loss and/or alteration in allosteric signal
same,allosteric signal in cAMP assay,CB2 mutant F197A,loss and/or alteration in allosteric signal
same,"modality in [3H]CP 55,940 binding studies",CB1,PAM
same,allosteric signal in cAMP assay,CB2 mutant L133A,loss and/or alteration in allosteric signal
same,allosteric effect on p-ERK 1/2 signaling,CB2 double mutants,either no effect to the allosteric modulator-induced changes on the signal or a slight decrease in the signal
same,allosteric signal in cAMP assay,CB2 mutant L160A,loss and/or alteration in allosteric signal
same,allosteric signal in cAMP assay,CB2 mutant M157A,loss and/or alteration in allosteric signal
same,allosteric effect on p-ERK 1/2 signaling,CB2 single mutants,either no effect or an increase in the p-ERK 1/2 signal
same,effect on agonist-stimulated [35S]GTPγS binding,CB2 [1],greatly enhanced
same,allosteric signal in cAMP assay,CB2 mutant I129A,loss and/or alteration in allosteric signal
same,allosteric signal in cAMP assay,CB2 mutant L125A,still demonstrating an allosteric effect
same,"modality in [3H]CP 55,940 binding studies",CB2 [2],PAM
same,allosteric effect on cAMP signaling,WT CB2 [3],possible PAM-antagonistic effect; also recorded: acts as a PAM
same,allosteric effect on cAMP signaling at nanomolar concentrations,WT CB2 [3],did not demonstrate an allosteric effect; also recorded: no allosteric effect
same,allosteric effect on cAMP signaling,"WT CB2 [3]; WT CB2, in the presence of 2-AG, Ec2la 1 and 10 μM",negative allosteric effect; also recorded: negative allosteric shift
same,allosteric effect on cAMP signaling,"WT CB2 [3]; WT CB2, in the presence of CP 55,940, Ec2la 1 and 10 μM",slight negative allosteric effect; also recorded: negative allosteric shift
same,allosteric effect on cAMP signaling,"WT CB2 [3]; WT CB2, in the presence of JWH133, modulator 0.1, 1, 10 μM",acts like a NAM
same,allosteric signal in cAMP assay,CB2 mutant T153A,still demonstrating an allosteric effect
same,allosteric effect on p-ERK 1/2 signaling,WT CB2 [4],acts as a NAM
same,allosteric signal in cAMP assay,CB2 mutant L126A,loss and/or alteration in allosteric signal
same,allosteric signal in cAMP assay,CB2 mutant L201A,still demonstrating an allosteric effect
"C=C(C)[C@@H]1CCC(C)=C[C@H]1c1c(O)cc(CCCCC)cc1O [CBD, Cannabidiol]",allosteric signal in cAMP assay,CB2 mutant F197A,loss and/or alteration in the allosteric signal
same,allosteric signal in cAMP assay,CB2 mutant L160A,still demonstrating an allosteric effect
same,allosteric signal in cAMP assay,CB2 mutant M157A,loss and/or alteration in the allosteric signal
same,allosteric signal in cAMP assay,CB2 mutant I129A,loss and/or alteration in the allosteric signal
same,allosteric signal in cAMP assay,CB2 mutant L125A,loss and/or alteration in the allosteric signal
same,allosteric effect on cAMP signaling,WT CB2 [3],acts as a NAM
same,orthosteric activity in cAMP assay,WT CB2 [3],acting as an agonist
same,allosteric signal in cAMP assay,CB2 mutant T153A,still demonstrating an allosteric effect
same,allosteric signal in cAMP assay,CB2 mutant L126A,loss and/or alteration in the allosteric signal
"CCCCC/C=C\C/C=C\C/C=C\C/C=C\CCCC(=O)OC(CO)CO [2-AG, 2-arachidonoylglycerol]",EC50,WT CB2 [3]; Figure S2,48.3 nM
same,EC50,WT CB2 [3]; Figure S3,202 nM
CCc1c(C(=O)NCCc2ccc(N3CCCCC3)cc2)[nH]c2ccc(Cl)cc12 [ORG27569],allosteric effect with radioligand binding,CB1 receptor [5],negative allosteric effect
same,allosteric effect in ERK 1/2 signaling,CB1 receptor [6],positive allosteric effect
